Among the data in ChEMBL document CHEMBL5053508, “Optimization of Beclin 1-Targeting Stapled Peptides by Staple Scanning Leads to Enhanced Antiproliferative Potency in Cancer Cells” (J Med Chem, 2021) are Kd, Activity and IC50 values, retold here.

A word on the Kd: it is the concentration at which binding is half-saturated. A high value points to weaker binding. One may read the IC50 as the concentration needed to halve the response being measured.

Activity calls are given as the source filed them. No cut-off for these calls is given here.

In one series the target is Beclin-1 (Homo sapiens, UniProt Q14457). As to the kind of experiment: Binding affinity to Beclin 1 coiled coil domain (unknown origin) by isothermal titration calorimetry assay. (ITC needs no label: the signal is the heat of the interaction.)
Sequence of Beclin-1 (Q14457 whole entry, the tested form may be a part): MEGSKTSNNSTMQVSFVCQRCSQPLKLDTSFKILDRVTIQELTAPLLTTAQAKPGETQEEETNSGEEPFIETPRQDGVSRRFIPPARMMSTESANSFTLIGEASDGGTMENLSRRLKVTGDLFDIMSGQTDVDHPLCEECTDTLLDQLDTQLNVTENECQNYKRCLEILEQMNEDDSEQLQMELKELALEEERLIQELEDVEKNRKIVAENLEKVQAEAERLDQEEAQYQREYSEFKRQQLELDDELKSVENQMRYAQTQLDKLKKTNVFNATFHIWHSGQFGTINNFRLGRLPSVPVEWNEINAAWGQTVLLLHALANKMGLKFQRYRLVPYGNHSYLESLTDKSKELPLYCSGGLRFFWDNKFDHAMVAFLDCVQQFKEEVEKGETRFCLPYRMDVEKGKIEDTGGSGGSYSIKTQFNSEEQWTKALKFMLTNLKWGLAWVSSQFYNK
A further series deals with HEK-293T. As to the kind of experiment: Cytotoxicity against HEK293T cells assessed as reduction in cell viability at 10 to 20 uM measured after 24 hrs by trypan blue exclusion assay. Type of series: cell-based. The conditions noted are these: human, dose 10-20 µM.
Series [1] concerns SK-BR-3. The experiment in a line: Antiproliferative activity against human SK-BR-3 cells assessed as reduction in cell growth incubated for 5 days by trypan blue exclusion assay. Type of series: functional, cell-based. Particulars: time 5.0 day.
Series [2] deals with SK-BR-3. The experiment in a line: Antiproliferative activity against human SK-BR-3 cells assessed as reduction of cell growth measured after 24 hrs by trypan blue exclusion assay. Particulars: SK-BR-3, 24 h.
For series [3], the system named is SK-BR-3. The experiment in a line: Induction of apoptosis in human SK-BR-3 cells assessed as increase in cleaved PARP expression at 0.15 uM incubated for 48 hrs by western blot analysis. Type of series: functional, cell-based.
For series [4], the system named is SK-BR-3. As to the kind of experiment: Induction of apoptosis in human SK-BR-3 cells assessed as increase in cleaved caspase-3 expression at 0.15 uM incubated for 48 hrs by western blot analysis. Type of series: functional, cell-based. (Immunoblotting shows a protein as a band on a membrane.)

`CC[C@H](C)[C@H](NC(=O)[C@H](CC(C)C)NC(=O)[C@H](CCCNC(=N)N)NC(=O)[C@H](CCCNC(=N)N)NC(=O)[C@H](CCCNC(=N)N)NC(=O)[C@H](CCCNC(=N)N)NC(=O)[C@H](CCC(N)=O)NC(=O)[C@H](CCCNC(=N)N)NC(=O)[C@H](CCCNC(=N)N)NC(=O)[C@H](CCCCN)NC(=O)[C@H](CCCCN)NC(=O)[C@H](CCCNC(=N)N)NC(=O)CNC(=O)[C@H](Cc1ccc(O)cc1)NC(C)=O)C(=O)N[C@@H](CO)C(=O)N[C@@H](CCC(=O)O)C(=O)N[C@@H](CC(C)C)C(=O)N[C@@H]1CCCCCC/C=C/CCC[C@@H](C(=O)N[C@@H](C)C(N)=O)NC(=O)[C@H](CCCNC(=N)N)NC(=O)[C@H](CCC(N)=O)NC(=O)[C@H](CCCCN)NC(=O)[C@H](CCC(=O)O)NC(=O)[C@H](CCCNC(=N)N)NC(=O)[C@H](CC(=O)O)NC1=O` gave a dissociation constant Kd at Beclin-1 of 3.21 µM.
For the compound `CC[C@H](C)[C@H](NC(=O)[C@@H](NC(=O)[C@H](CCCNC(=N)N)NC(=O)[C@H](CCCNC(=N)N)NC(=O)[C@H](CCCNC(=N)N)NC(=O)[C@H](CCCNC(=N)N)NC(=O)[C@H](CCC(N)=O)NC(=O)[C@H](CCCNC(=N)N)NC(=O)[C@H](CCCNC(=N)N)NC(=O)[C@H](CCCCN)NC(=O)[C@H](CCCCN)NC(=O)[C@H](CCCNC(=N)N)NC(=O)CNC(=O)[C@H](Cc1ccc(O)cc1)NC(C)=O)C(C)C)C(=O)N[C@@H](CCC(N)=O)C(=O)N[C@@H]1CCCCCC/C=C/CCC[C@@H](C(=O)N[C@@H](CCCNC(=N)N)C(=O)N[C@@H](CC(=O)O)C(=O)N[C@H](C(N)=O)C(C)C)NC(=O)[C@H](CCCCN)NC(=O)[C@H](CCC(=O)O)NC(=O)[C@H]([C@@H](C)CC)NC(=O)[C@H]([C@@H](C)CC)NC(=O)[C@H](C(C)C)NC(=O)[C@H](CC(C)C)NC1=O`, the Activity result with HEK-293T was “Non-Toxic”; with SK-BR-3 [1], “Dose-dependent effect”. Moreover, the IC50 in the series on SK-BR-3 [2] was found to be 13.6 µM.
On to `CC[C@H](C)[C@H](NC(=O)[C@H](Cc1ccccc1)NC(=O)[C@H](CCCNC(=N)N)NC(=O)[C@H](CCCNC(=N)N)NC(=O)[C@H](CCCNC(=N)N)NC(=O)[C@H](CCCNC(=N)N)NC(=O)[C@H](CCC(N)=O)NC(=O)[C@H](CCCNC(=N)N)NC(=O)[C@H](CCCNC(=N)N)NC(=O)[C@H](CCCCN)NC(=O)[C@H](CCCCN)NC(=O)[C@H](CCCNC(=N)N)NC(=O)CNC(=O)[C@H](Cc1ccc(O)cc1)NC(C)=O)C(=O)N[C@@H](CCC(N)=O)C(=O)N[C@@H]1CCCCCC/C=C/CCC[C@@H](C(=O)N[C@@H](CCCNC(=N)N)C(=O)N[C@@H](CO)C(=O)N[C@H](C(N)=O)C(C)C)NC(=O)[C@H](CCCCN)NC(=O)[C@H]([C@@H](C)CC)NC(=O)[C@H](C(C)C)NC(=O)[C@H](C(C)C)NC(=O)[C@H](CCC(=O)O)NC(=O)[C@H](CC(C)C)NC1=O`, for which, at Beclin-1, the outcome was inactive.
Turning to `CC[C@H](C)[C@H](NC(=O)[C@H](CC(C)C)NC(=O)[C@H](CCCNC(=N)N)NC(=O)[C@H](CCCNC(=N)N)NC(=O)[C@H](CCCNC(=N)N)NC(=O)[C@H](CCCNC(=N)N)NC(=O)[C@H](CCC(N)=O)NC(=O)[C@H](CCCNC(=N)N)NC(=O)[C@H](CCCNC(=N)N)NC(=O)[C@H](CCCCN)NC(=O)[C@H](CCCCN)NC(=O)[C@H](CCCNC(=N)N)NC(=O)CNC(=O)[C@H](Cc1ccc(O)cc1)NC(C)=O)C(=O)N[C@@H](CCC(N)=O)C(=O)N[C@@H]1CCCCCC/C=C/CCC[C@@H](C(=O)N[C@@H](CCCNC(=N)N)C(=O)N[C@@H](CCCCN)C(=O)N[C@@H](CCCNC(=N)N)C(N)=O)NC(=O)[C@H](CCCCN)NC(=O)[C@H](CCC(=O)O)NC(=O)[C@H](C(C)C)NC(=O)[C@H](CC(=O)O)NC(=O)[C@H](CCC(=O)O)NC(=O)[C@H](CCCNC(=N)N)NC1=O`, on Beclin-1, the result was inactive.
For `CC(=O)N[C@@H](Cc1ccc(O)cc1)C(=O)NCC(=O)N[C@@H](CCCNC(=N)N)C(=O)N[C@@H](CCCCN)C(=O)N[C@@H](CCCCN)C(=O)N[C@@H](CCCNC(=N)N)C(=O)N[C@@H](CCCNC(=N)N)C(=O)N[C@@H](CCC(N)=O)C(=O)N[C@@H](CCCNC(=N)N)C(=O)N[C@@H](CCCNC(=N)N)C(=O)N[C@@H](CCCNC(=N)N)C(=O)N[C@@H](CCCNC(=N)N)C(=O)N[C@@H](CC(C)C)C(=O)N[C@@H](CC(C)C)C(=O)N[C@@H](CCC(N)=O)C(=O)N[C@@H]1CCCCCC/C=C/CCC[C@@H](C(=O)N[C@@H](CCCNC(=N)N)C(=O)N[C@@H](CO)C(=O)N[C@H](C(N)=O)C(C)C)NC(=O)[C@H](CCCCN)NC(=O)[C@H](CC(C)C)NC(=O)[C@H](C(C)C)NC(=O)[C@H]([C@@H](C)O)NC(=O)[C@H](CCCCN)NC(=O)[C@H](CC(C)C)NC1=O`, on Beclin-1, the outcome was inactive.
`CC[C@H](C)[C@H](NC(=O)[C@H](CC(C)C)NC(=O)[C@H](C)NC(=O)[C@H](CCCNC(=N)N)NC(=O)[C@H](CCCNC(=N)N)NC(=O)[C@H](CCCNC(=N)N)NC(=O)[C@H](CCC(N)=O)NC(=O)[C@H](CCCNC(=N)N)NC(=O)[C@H](CCCNC(=N)N)NC(=O)[C@H](CCCCN)NC(=O)[C@H](CCCCN)NC(=O)[C@H](CCCNC(=N)N)NC(=O)CNC(=O)[C@H](Cc1ccc(O)cc1)NC(C)=O)C(=O)N[C@@H](CCC(N)=O)C(=O)N[C@@H]1CCCCCC/C=C/CCC[C@@H](C(=O)N[C@@H](CCCNC(=N)N)C(=O)N[C@@H](CCCCN)C(=O)N[C@@H](CCCNC(=N)N)C(N)=O)NC(=O)[C@H](CCCCN)NC(=O)[C@H](CCC(=O)O)NC(=O)[C@H](C(C)C)NC(=O)[C@H](CC(=O)O)NC(=O)[C@H](CCC(=O)O)NC(=O)[C@H](CCC(N)=O)NC1=O` gave a Kd at Beclin-1 of 311 µM.
Still for that read-out and setting: as for `CC[C@H](C)[C@H](NC(=O)[C@H](CC(C)C)NC(=O)[C@H](CCCNC(=N)N)NC(=O)[C@H](CCCNC(=N)N)NC(=O)[C@H](CCCNC(=N)N)NC(=O)[C@H](CCCNC(=N)N)NC(=O)[C@H](CCC(N)=O)NC(=O)[C@H](CCCNC(=N)N)NC(=O)[C@H](CCCNC(=N)N)NC(=O)[C@H](CCCCN)NC(=O)[C@H](CCCCN)NC(=O)[C@H](CCCNC(=N)N)NC(=O)CNC(=O)[C@H](Cc1ccc(O)cc1)NC(C)=O)C(=O)N[C@H](C(=O)N[C@@H]1CCCCCC/C=C/CCC[C@@H](C(=O)N[C@@H](CCCNC(=N)N)C(=O)N[C@@H](CCCCN)C(=O)N[C@@H](CCCNC(=N)N)C(N)=O)NC(=O)[C@H](CCCCN)NC(=O)[C@H](CCC(=O)O)NC(=O)[C@H](C(C)C)NC(=O)[C@H](CC(=O)O)NC(=O)[C@H](CCC(=O)O)NC(=O)[C@H](CCC(N)=O)NC1=O)[C@@H](C)CC`, the figure is 356 µM.
Consider `CC(=O)O[C@H]1C(=O)[C@@]2(C)[C@H]([C@H](OC(=O)c3ccccc3)[C@]3(O)C[C@H](OC(=O)[C@H](O)[C@@H](NC(=O)c4ccccc4)c4ccccc4)C(C)=C1C3(C)C)[C@]1(OC(C)=O)CO[C@@H]1C[C@@H]2O`, for which the outcome in the series on SK-BR-3 [3] and with SK-BR-3 [4] was Active.
